Here are results for 23 compounds from patent publication US7393846B2, “Heterocyclic compounds useful for the treatment of inflammatory and allergic disorders” (Glenmark Pharmaceuticals, S.A., priority 2003, dated 2008).

In series [1] the target is PDE4 enzyme. Description: Inhibition of Phosphodiesterase Enzymes (PDE4), [3H]cAMP hydrolysis assay. In kind it is biochemical. As to conditions: for IC50: PDE4 inhibition, 1 μM cAMP, 34° C., 20 minutes. Here is the method: Inhibition of Phosphodiesterase Enzymes (PDE4)
In this assay, PDE4 enzyme converts [^3H] cAMP to the corresponding [^3H] 5′-AMP in proportion to the amount of PDE4 present. The [^3H] 5′-AMP then was quantitatively converted to free [^3H] adenosine and phosphate by the action of snake venom 5′-nucleotidase.
The assay was performed with modification of the method of Thompson and Appleman (Biochemistry; 1971; 10; 311-316) and Schwartz and Passoneau (Proc. Natl. Acad. Sci. U.S.A. 1974; 71; 3844-3848), both references incorporated herein by reference in their entirety, at 34° C. In a 200 ul total reaction mixture, the reaction mixture contained 12.5 mM of Tris, 5 mM MgCl2, 1 μM cAMP (cold) and ^3H cAMP (0.1 uCi), (Amersham). […] Drug samples were then added in the reaction mixture (25 μt/tube). The assay was initiated by addition of enzyme mix (75 μl) and the mixture was incubated for 20 minutes at 34° C. The reaction was stopped by boiling the tubes for 2 mins at 100° C. in a water bath. After cooling on ice for 5 minutes and addition of 50 ug/reaction of 5′-nucleotidase snake venom from Crotalus atrox incubation was carried out again for 20 min. at 34° C. The unreacted substrate was separated from (^3H) Adenosine by addition of Dowex AG 1-X8 (Biorad Lab), (400 ul) which was prequilibrated (1:1:1) in water and ethanol. Reaction mixture was then thoroughly mixed, placed on ice for 15 minutes, vortexed and centrifuged at 14,000 r.p.m. for 2 mins. After centrifugation, a sample of the supernatant was taken and added in 24 well optiplates containing Scintillant (1 ml) and mixed well. The samples in the plates were then determined for radioactivity in a Top Counter and the PDE4 activity was estimated. PDE4 enzyme was present in quantities that yield <30% total hydrolysis of substrate (linear assay conditions).
Results were expressed as percent inhibition (IC50) in nM concentrations. The IC50 values were determined from the concentration curves by nonlinear regression analysis.

For series [2], the system named is PDE4. Description: EC50 of the PDE4 results table (method not given).

In the case of `CCOC(=O)Nc1ccc2oc3c(OC)ccc(C(=O)Nc4c(Cl)cncc4Cl)c3c2c1` [Example 15, N-(3,5-dichloropyrid-4-yl)-4-methoxy-8-ethoxycarboxamido-dibenzo[b,d]furan-1-carboxamide], the melting point stood at 274 °C. Besides, the IC50 in series [1] worked out at 15.1 nM.
In the case of `COc1ccc(NC(=O)c2ccc(OC)c3oc4ccc(NC(C)=O)cc4c23)cc1` [Example 42, N1-(4-methoxyphenyl)-4-methoxy-8-acetamido-dibenzo[b,d]furan-1-carboxamide], the melting point turned out to be 285 °C. Also, the IC50 in series [1] worked out at 959 nM.
Regarding `CCNC(=S)Nc1ccc2oc3c(OC)ccc(C(=O)Nc4c(Cl)cncc4Cl)c3c2c1` [Example 44, N-(3,5-dichloropyrid-4-yl)-4-methoxy-8-(ethylaminothiocarboxamido)-dibenzo[b,d]furan-1-carboxamide], the melting point was determined as 260 °C. Moreover, in series [1], the IC50 came out at 1.72 nM. The EC50 in series [2] came to 3.93 nM.
As for `COc1ccc(C(=O)NCc2ccccc2)c2c1oc1ccc(NC(C)=O)cc12` [Example 43, N1-benzyl-4-methoxy-8-acetamido-dibenzo[b,d]furan-1-carboxamide], the melting point fell in the range of 264 to 265 °C. Besides, the “percent inhibition” value in series [1] (PDE4 inhibition at 1 uM) amounted to 17.93% at 1 uM.
Turning to `CCN(CC)C(=O)Nc1ccc2oc3c(OC)ccc(C(=O)Nc4c(Cl)cncc4Cl)c3c2c1` [Example 20, N-(3,5-dichloropyrid-4-yl)-4-methoxy-8-N,N-diethylaminocarboxamido-dibenzo[b,d]furan-1-carboxamide], the melting point is > 250 °C. Besides, the 50% inhibitory concentration (IC50) in series [1] stood at 10.3 nM. Besides, in series [2], the EC50 came to 8.29 nM.
For `COc1ccc(C(=O)Nc2c(Cl)cncc2Cl)c2c1oc1ccc(NC(=O)C(F)(F)F)cc12` [Example 14, N-(3,5-dichloropyrid-4-yl)-4-methoxy-8-trifluoroacetamido-dibenzo[b,d]furan-1-carboxamide], the melting point was > 300 °C. The compound further yielded a half-maximal inhibitory concentration (IC50) in series [1] of 7.01 nM. A half-maximal effect in series [2] (EC50) was put at 14.1 nM.
Consider `COc1ccc(C(=O)Nc2cccnc2)c2c1oc1ccc(NC(C)=O)cc12` [Example 46, N1-(pyrid-3-yl)-4-methoxy-8-acetamido-dibenzo[b,d]furan-1-carboxamide], for which the melting point was > 250 °C. The IC50 in series [1] stood at 134 nM.
As for `COc1ccc(C(=O)Nc2c(Cl)cncc2Cl)c2c1oc1ccc(NC(C)=O)cc12` [Example 04, N-(3,5-dichloropyrid-4-yl)-4-methoxy-8-acetamido-dibenzo[b,d]furan-1-carboxamide], the melting point came out at 252 °C. The compound also gave an IC50 in series [1] of 1.18 nM. The compound further yielded an EC50 in series [2] of 13.6 nM.
In the case of `COc1ccc(C(=O)Nc2ccncc2)c2c1oc1ccc(NC(C)=O)cc12` [Example 49, N-(pyrid-4-yl)-4-methoxy-8-acetamido-dibenzo[b,d]furan-1-carboxamide], the melting point was 267 to 268 °C. The compound also gave an IC50 in series [1] of 13.2 nM.
For the compound `COc1ccc(C(=O)Nc2c(Cl)cncc2Cl)c2c1oc1ccc(NC(=O)c3ccco3)cc12` [Example 11, N-(3,5-dichloropyrid-4-yl)-4-methoxy-8-(fur-2-yl-carboxamido)-dibenzo[b,d]furan-1-carboxamide], the IC50 in series [1] came to 0.887 nM. This compound also registered an EC50 in series [2] of 4.34 nM.
Take `COc1ccc(C(=O)Nc2c(Cl)cncc2Cl)c2c1oc1ccc(NC(=O)N3CCC(O)CC3)cc12` [Example 24, N-(3,5-dichloropyrid-4-yl)-4-methoxy-8-(4-hydroxypiperidin-1-ylcarboxamido)-dibenzo[b,d]furan-1-carboxamide]: in series [1], the IC50 worked out at 3.01 nM. In addition, the EC50 in series [2] worked out at 2.94 nM.
`COc1ccc(C(=O)Nc2c(Cl)cncc2Cl)c2c1oc1ccc(NS(C)(=O)=O)cc12` [Example 01, N-(3,5-dichloropyrid-4-yl)-4-methoxy-8-methanesulfonamido-dibenzo[b,d]furan-1-carboxamide]: the IC50 in series [1] is 0.506 nM. The same compound had an EC50 in series [2] of 8.57 nM.
Turning to `CCOC(=O)CNC(=O)Nc1ccc2oc3c(OC)ccc(C(=O)Nc4c(Cl)cncc4Cl)c3c2c1` [Example 50, N-(3,5-dichloropyrid-4-yl)-4-methoxy-8-(2-ethoxy-2-oxo-ethylaminocarbonylamino)-dibenzo[b,d]furan-1-carboxamide], the melting point was > 250 °C. Besides, in series [1], the IC50 is 9.93 nM. For the same compound, it took 147 nM to reach a half-maximal effect in series [2] (EC50).
The matching figures for `COc1ccc(C(=O)Nc2c(Cl)cncc2Cl)c2c1oc1ccc(NC(=O)OCC3CC3)cc12` [Example 18, N-(3,5-dichloropyrid-4-yl)-4-methoxy-8-cyclopropylmethoxycarboxamido-dibenzo[b,d]furan-1-carboxamide]: 272 °C, 3.47 nM and 19.1 nM.
Take `CCOC(=O)C(=O)Nc1ccc2oc3c(OC(F)F)ccc(C(=O)Nc4c(Cl)cncc4Cl)c3c2c1` [Example 37, N-(3,5-dichloropyrid-4-yl)-4-difluoromethoxy-8-ethoxycarbonylcarboxamido-dibenzo[b,d]furan-1-carboxamide]: inhibition in series [1] was half-maximal at 21.5 nM (IC50). For the same compound, in series [2], the EC50 was > 278 nM.
`CCOC(=O)CNc1ccc2oc3c(OC)ccc(C(=O)Nc4c(Cl)cncc4Cl)c3c2c1` [Example 52, N-(3,5-dichloropyrid-4-yl)-4-methoxy-8-(2-ethoxy-2-oxo-ethylamino)-dibenzo[b,d]furan-1-carboxamide] gave an IC50 in series [1] of 8.13 nM. In addition, the EC50 in series [2] amounted to 821 nM.
For `COc1ccc(C(=O)Nc2c(Cl)cncc2Cl)c2c1oc1ccc(NC(=O)N3CCOCC3)cc12` [Example 25, N-(3,5-dichloropyrid-4-yl)-4-methoxy-8-(morphol-4-ylcarboxamido)-dibenzo[b,d]furan-1-carboxamide], the IC50 in series [1] worked out at 5.07 nM. In series [2], this compound yielded an EC50 of 8.9 nM.
`CCCCNC(=S)Nc1ccc2oc3c(OC)ccc(C(=O)Nc4c(Cl)cncc4Cl)c3c2c1` [Example 45, N-(3,5-dichloropyrid-4-yl)-4-methoxy-8-(n-butylaminothiocarboxamido)-dibenzo[b,d]furan-1-carboxamide] returned an IC50 in series [1] of 0.773 nM. This compound returned an EC50 in series [2] of 6.37 nM.
`COc1ccc(C(=O)Nc2ccccc2)c2c1oc1ccc(NC(C)=O)cc12` [Example 41, N1-phenyl-4-methoxy-8-acetamido-dibenzo[b,d]furan-1-carboxamide] showed a melting point of 252 °C. Besides, half-maximal inhibition in series [1] (IC50) was put at 156 nM.
`O=C(Nc1ccc2oc3c(OC(F)F)ccc(C(=O)Nc4c(Cl)cncc4Cl)c3c2c1)c1ccco1` [Example 40, N-(3,5-dichloropyrid-4-yl)-4-difluoromethoxy-8-fur-2-ylcarboxamido-dibenzo[b,d]furan-1-carboxamide]: inhibition in series [1] was half-maximal at 22 nM (IC50). Also, the EC50 in series [2] amounted to 11.3 nM.
In series [1], `COc1ccc(C(=O)Nc2c(Cl)cncc2Cl)c2c1oc1ccc(NC(=O)N3CCN(C)CC3)cc12` [Example 22, N-(3,5-dichloropyrid-4-yl)-4-methoxy-8-(N-methylpiperazin-4-ylcarboxamido)-dibenzo[b,d]furan-1-carboxamide] displayed an IC50 of 1.28 nM. Moreover, in series [2], the EC50 stood at 9.34 nM.
In series [1], `COc1ccc(C(=O)Nc2c(Cl)cncc2Cl)c2c1oc1ccc(NC(=O)OCC(F)(F)F)cc12` [Example 19, N-(3,5-dichloropyrid-4-yl)-4-methoxy-8-trifluoromethylmethoxycarboxamido-dibenzo[b,d]furan-1-carboxamide] had an IC50 of 4.79 nM. The compound also came in with an EC50 in series [2] of 9.01 nM.
`CC(=O)Nc1ccc2oc3c(OC(F)F)ccc(C(=O)Nc4c(Cl)cncc4Cl)c3c2c1` [Example 34, N-(3,5-dichloropyrid-4-yl)-4-difluoromethoxy-8-acetamido-dibenzo[b,d]furan-1-carboxamide] yielded a melting point of 234 °C. This compound yielded an IC50 in series [1] of 3.55 nM. This compound came in with an EC50 in series [2] of 14.8 nM.
